Experimental data taken from article PMC11740121 (ACS Omega, 2025).
pKd: −log10 of the molar value.

Target: PRMT5 (protein arginine methyltransferase 5) (Homo sapiens, UniProt O14744)
Assay: SPR with immobilized PRMT5 N-terminal TIM barrel
Format: binding

Sequence of PRMT5 (protein arginine methyltransferase 5) (O14744 1-292): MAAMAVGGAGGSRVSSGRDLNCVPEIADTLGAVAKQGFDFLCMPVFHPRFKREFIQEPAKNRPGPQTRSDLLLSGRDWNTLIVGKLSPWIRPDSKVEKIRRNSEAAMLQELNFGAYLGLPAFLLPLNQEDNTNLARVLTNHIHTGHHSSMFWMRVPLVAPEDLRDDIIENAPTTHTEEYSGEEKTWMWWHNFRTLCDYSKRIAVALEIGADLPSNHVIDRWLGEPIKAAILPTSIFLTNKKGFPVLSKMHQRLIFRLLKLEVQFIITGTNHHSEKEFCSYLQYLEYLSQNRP

A pKd of 4.67 was found for `O=C(Cc1csc(-c2ccc(C(F)(F)F)cc2)n1)Nc1ccc2oc(=O)[nH]c2c1` [Z319334062] in this work.
